Patent US20090042964A1, “AMINO-5-[SUBSTITUTED-4-(DIFLUOROMETHOXY)PHENYL]-5-PHENYLIMIDAZOLONE COMPOUNDS AS BETA-SECRETASE INHIBITORS” (Wyeth, priority 2007, published 2009)
pIC50: −log10 of the molar value. Read-outs that look alike come from different tables or passages of the source. Each block holds one compound with its values, some of them ahead of it.

Biological target: human BACE1 (Homo sapiens, UniProt P56817)
Test: Fluorescent kinetic assay, evaluation of BACE1 binding affinity of test compounds
Assay type: biochemical
Details: 10 nM human BACE1, 25 μM substrate WABC-6, pH 4.5, room temperature; for pIC50: read-out: BACE1 IC50
Description: Concentration is determined by absorbance at 354 nm using an extinction coefficient of 18172 M^-1 cm^-1, the concentration of stock substrate is corrected, and the substrate stock stored in small aliquots in -80° C. […] Determination of Stock Enzyme Concentration: the stock concentration of each enzyme is determined by absorbance at 280 nm using an of 64150 M^-1 cm^-1 for hBACE1 and MuBACE1, 62870 M^-1 cm^-1 for hBACE2 in 6 M Guanidinium Hydrochloride (from Research Organics, Cat. # 5134G-2), pH 6. […] Biochem. 182, 319-326). Dilution and mixing steps: total reaction volume: 100 μL 2× inhibitor dilutions in buffer A (66.7 mM Na-Acetate, pH 4.5, 0.0667% CHAPS) were prepared, 4× enzyme dilution in buffer A (66.7 mM Na-Acetate, pH 4.5, 0.0667% CHAPS) were prepared, 100 μM substrate dilution in 1×PBS was prepared, and 50 μL 2× Inhibitor, 25 μL 100 μM substrate are added to each well of 96-well plate (from DYNEX Technologies, VWR #: 11311-046), immediately followed by 25 μL 4× enzyme (added to the inhibitor and substrate mix), and the fluorescence readings are initiated.

Sequence of human BACE1 (P56817 46-501): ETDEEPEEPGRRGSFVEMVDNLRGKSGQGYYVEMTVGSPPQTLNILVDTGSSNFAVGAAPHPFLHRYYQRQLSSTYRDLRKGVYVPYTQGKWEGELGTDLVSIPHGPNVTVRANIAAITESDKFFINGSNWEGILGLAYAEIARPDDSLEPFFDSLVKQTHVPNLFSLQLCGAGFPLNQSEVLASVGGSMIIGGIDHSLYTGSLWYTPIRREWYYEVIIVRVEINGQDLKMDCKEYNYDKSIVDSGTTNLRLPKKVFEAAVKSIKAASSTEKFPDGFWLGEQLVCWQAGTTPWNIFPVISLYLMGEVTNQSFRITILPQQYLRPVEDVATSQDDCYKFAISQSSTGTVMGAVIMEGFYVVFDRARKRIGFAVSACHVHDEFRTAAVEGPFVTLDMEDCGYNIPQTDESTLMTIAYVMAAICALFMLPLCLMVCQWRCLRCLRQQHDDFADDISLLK

Compound: CN1C(=O)[C@](c2ccccc2)(c2ccc(OC(F)F)c(CCF)c2)N=C1N (single isomer, unassigned) [Example 75]
pIC50: > 7.00

Compound: CCCc1cc([C@]2(c3ccccc3)N=C(N)N(C)C2=O)ccc1OC(F)F (single isomer, unassigned) [Example 80]
pIC50: < 6.00

Compound: CCC#Cc1cc([C@]2(c3ccc(OC(F)F)c(C)c3)N=C(N)N(C)C2=O)ccc1F (single isomer, unassigned) [Example 84]
pIC50: 6.00 to 6.96

Compound: CN1C(=O)[C@](c2ccc(F)c(OCCCF)c2)(c2ccc(OC(F)F)c(C3CC3)c2)N=C1N (single isomer, unassigned) [Example 86]
pIC50: > 7.00

Compound: CN1C(=O)[C@@](c2cccc(Br)c2)(c2ccc(OC(F)F)c(C3CC3)c2)N=C1N (single isomer, unassigned) [Example 166]
pIC50: < 6.00

Compound: CC#Cc1cccc([C@@]2(c3ccc(OC(F)F)c(C4CC4)c3)N=C(N)N(C)C2=O)c1 (single isomer, unassigned) [Example 169]
pIC50: > 7.00

Compound: CN1C(=O)[C@](c2cccc(C#CCCCF)c2)(c2ccc(OC(F)F)c(C3CC3)c2)N=C1N (single isomer, unassigned) [Example 192]
pIC50: > 7.00

Compound: CCc1cc(C2(c3ccc(F)c(OCCCF)c3)N=C(N)N(C)C2=O)ccc1OC(F)F (stereo in doubt) [Example 122, (5S)-2-Amino-5-[4-(difluoromethoxy)-3-ethylphenyl]-5-[4-fluoro-3-(3-fluoropropoxy)phenyl]-3-methyl-3,5-dihydro-4H-imidazol-4-one]
pIC50: > 7.00

Compound: CC(C)c1cc(C2(c3ccccc3)N=C(N)N(C)C2=O)ccc1OC(F)F (stereo in doubt) [Example 138, (5R)-2-Amino-5-[4-(difluoromethoxy)-3-isopropylphenyl]-3-methyl-5-phenyl-3,5-dihydro-4H-imidazol-4-one]
pIC50: > 7.00

Compound: CC(C)c1cc(C2(c3ccccc3)N=C(N)N(C)C2=O)ccc1OC(F)F (stereo in doubt) [Example 139, (5S)-2-Amino-5-[4-(difluoromethoxy)-3-isopropylphenyl]-3-methyl-5-phenyl-3,5-dihydro-4H-imidazol-4-one]
pIC50: < 6.00

Compound: Cc1cc(C2(c3ccc(F)cc3)N=C(N)N(C)C2=O)ccc1OC(F)F (stereo not shown) [Example 3, 2-Amino-4-(4-(difluoromethoxy)-3-methylphenyl)-4-(4-fluorophenyl)-1-methyl-1H-imidazol-5(4H)-one]
pIC50: 6.00 to 6.96

Compound: Cc1cc(C2(c3ccccc3)N=C(N)N(C)C2=O)cc(C)c1OC(F)F (stereo not shown) [Example 5, 2-Amino-5-[4-(difluoromethoxy)-3,5-dimethylphenyl]-3-methyl-5-phenyl-3,5-dihydro-4H-imidazol-4-one]
IC50 (BACE1 IC50 μM): 0.11 to 1 µM

Compound: CCc1cc(C2(c3ccccc3)N=C(N)N(C)C2=O)ccc1OC(F)F (stereo not shown) [Example 6, 2-Amino-5-[4-(difluoromethoxy)-3-ethylphenyl]-3-methyl-5-phenyl-3,5-dihydro-4H-imidazol-4-one]
IC50 (BACE1 IC50 μM): 0.11 to 1 µM

Compound: CCc1cc(C2(c3ccc(F)cc3)N=C(N)N(C)C2=O)ccc1OC(F)F (stereo not shown) [Example 7, 2-Amino-4-[4-(difluoromethoxy)-3-ethylphenyl]-4-(4-fluorophenyl)-1-methyl-1H-imidazol-5(4H)-one]
IC50 (BACE1 IC50 μM): 0.11 to 1 µM

Compound: CCCc1cc(C2(c3ccccc3)N=C(N)N(C)C2=O)ccc1OC(F)F (stereo not shown) [Example 8, 2-Amino-5-[4-(difluoromethoxy)-3-propylphenyl]-3-methyl-5-phenyl-3,5-dihydro-4H-imidazol-4-one]
IC50 (BACE1 IC50 μM): 0.11 to 1 µM

Compound: CC(C)c1cc(C2(c3ccccc3)N=C(N)N(C)C2=O)ccc1OC(F)F (stereo not shown) [Example 9, 2-Amino-5-[4-(difluoromethoxy)-3-isopropylphenyl]-3-methyl-5-phenyl-3,5-dihydro-4H-imidazol-4-one]
IC50 (read-out: BACE1 IC50 μM): 0.11 to 1 µM

Compound: CN1C(=O)C(c2ccccc2)(c2ccc(OC(F)F)c(C3CC3)c2)N=C1N (stereo not shown) [Example 10, 2-Amino-5-[3-cyclopropyl-4-(difluoromethoxy)phenyl]-3-methyl-5-phenyl-3,5-dihydro-4H-imidazol-4-one]
IC50 (BACE1 IC50 μM): < 0.1 µM

Compound: C=Cc1cc(C2(c3ccccc3)N=C(N)N(C)C2=O)ccc1OC(F)F (stereo not shown) [Example 11, 2-Amino-5-[4-(difluoromethoxy)-3-vinylphenyl)-3-methyl-5-phenyl-3,5-dihydro-4H-imidazol-4-one]
IC50 (BACE1 IC50 μM): 0.11 to 1 µM

More lines, now with the values ahead:

pIC50: 6.00 to 6.96
Compound: 2-Amino-5-[3-chloro-4-(difluoromethoxy)phenyl]-3-methyl-5-phenyl-3,5-dihydro-4H-imidazol-4-one [Example 16]

pIC50: 6.00 to 6.96
Compound: 2-Amino-5-[4-(difluoromethoxy)-3-(fluoromethyl)phenyl]-3-methyl-5-phenyl-3,5-dihydro-4H-imidazol-4-one [Example 14]

pIC50: 6.00 to 6.96
Compound: CCCC#Cc1cc([C@]2(c3ccc(OC(F)F)c(C)c3)N=C(N)N(C)C2=O)ccc1F (single isomer, unassigned) [Example 73]

pIC50: < 6.00
Compound: CN1C(=O)[C@@](c2ccccc2)(c2ccc(OC(F)F)c(CCF)c2)N=C1N (single isomer, unassigned) [Example 76]

pIC50: > 7.00
Compound: CCCc1cc([C@]2(c3ccccc3)N=C(N)N(C)C2=O)ccc1OC(F)F (single isomer, unassigned) [Example 79]

pIC50: > 7.00
Compound: CCC#Cc1cc([C@@]2(c3ccc(OC(F)F)c(C)c3)N=C(N)N(C)C2=O)ccc1F (single isomer, unassigned) [Example 83]

pIC50: < 6.00
Compound: CN1C(=O)[C@@](c2ccc(F)c(OCCCF)c2)(c2ccc(OC(F)F)c(C3CC3)c2)N=C1N (single isomer, unassigned) [Example 87]

pIC50: > 7.00
Compound: CN1C(=O)[C@](c2ccc(F)c(C#CC3CC3)c2)(c2ccc(OC(F)F)c(CCF)c2)N=C1N (single isomer, unassigned) [Example 93]

pIC50: 6.00 to 6.96
Compound: CN1C(=O)[C@@](c2ccc(F)c(C#CC3CC3)c2)(c2ccc(OC(F)F)c(CCF)c2)N=C1N (single isomer, unassigned) [Example 94]

pIC50: > 7.00
Compound: CN1C(=O)[C@](c2cccc(Br)c2)(c2ccc(OC(F)F)c(C3CC3)c2)N=C1N (single isomer, unassigned) [Example 165]

pIC50: < 6.00
Compound: CC#Cc1cccc([C@]2(c3ccc(OC(F)F)c(C4CC4)c3)N=C(N)N(C)C2=O)c1 (single isomer, unassigned) [Example 170]

pIC50: > 7.00
Compound: CC(C)C#Cc1cccc([C@@]2(c3ccc(OC(F)F)c(C4CC4)c3)N=C(N)N(C)C2=O)c1 (single isomer, unassigned) [Example 174]

pIC50: < 6.00
Compound: CC(C)C#Cc1cccc([C@]2(c3ccc(OC(F)F)c(C4CC4)c3)N=C(N)N(C)C2=O)c1 (single isomer, unassigned) [Example 175]

pIC50: > 7.00
Compound: CN1C(=O)[C@](c2cccc(C#CC3CC3)c2)(c2ccc(OC(F)F)c(C3CC3)c2)N=C1N (single isomer, unassigned) [Example 177]

pIC50: 6.00 to 6.96
Compound: CN1C(=O)[C@@](c2cccc(C#CC3CC3)c2)(c2ccc(OC(F)F)c(C3CC3)c2)N=C1N (single isomer, unassigned) [Example 178]

pIC50: > 7.00
Compound: COCC#Cc1cccc([C@@]2(c3ccc(OC(F)F)c(C4CC4)c3)N=C(N)N(C)C2=O)c1 (single isomer, unassigned) [Example 181]

pIC50: 6.00 to 6.96
Compound: COCC#Cc1cccc([C@]2(c3ccc(OC(F)F)c(C4CC4)c3)N=C(N)N(C)C2=O)c1 (single isomer, unassigned) [Example 182]

pIC50: 6.00 to 6.96
Compound: COCCC#Cc1cccc([C@]2(c3ccc(OC(F)F)c(C4CC4)c3)N=C(N)N(C)C2=O)c1 (single isomer, unassigned) [Example 184]

pIC50: > 7.00
Compound: COCCC#Cc1cccc([C@@]2(c3ccc(OC(F)F)c(C4CC4)c3)N=C(N)N(C)C2=O)c1 (single isomer, unassigned) [Example 185]

pIC50: 6.00 to 6.96
Compound: CN1C(=O)[C@@](c2cccc(C#CCCCO)c2)(c2ccc(OC(F)F)c(C3CC3)c2)N=C1N (single isomer, unassigned) [Example 189]

pIC50: > 7.00
Compound: CN1C(=O)[C@](c2cccc(C#CCCCO)c2)(c2ccc(OC(F)F)c(C3CC3)c2)N=C1N (single isomer, unassigned) [Example 190]

pIC50: 6.00 to 6.96
Compound: CN1C(=O)[C@@](c2cccc(C#CCCCF)c2)(c2ccc(OC(F)F)c(C3CC3)c2)N=C1N (single isomer, unassigned) [Example 193]

pIC50: > 7.00
Compound: CCCOc1cc(C2(c3ccc(OC(F)F)c(C)c3)N=C(N)N(C)C2=O)ccc1F (stereo in doubt) [Example 116, (5S)-2-Amino-5-[4-(difluoromethoxy)-3-methylphenyl]-5-(4-fluoro-3-propoxyphenyl)-3-methyl-3,5-dihydro-4H-imidazol-4-one]

pIC50: < 6.00
Compound: Cc1cc([C@]2(c3ccc(F)cc3)N=C(N)N(C)C2=O)ccc1OC(F)F [Example 4A, (5S)-2-Amino-4-(4-(difluoromethoxy)-3-methylphenyl)-4-(4-fluorophenyl)-1-methyl-1H-imidazol-5(4H)-one]

pIC50: 6.00 to 6.96
Compound: Cc1cc([C@@]2(c3ccc(F)cc3)N=C(N)N(C)C2=O)ccc1OC(F)F [Example 4B, (5R)-2-Amino-4-(4-(difluoromethoxy)-3-methylphenyl)-4-(4-fluorophenyl)-1-methyl-1H-imidazol-5(4H)-one]
